Assay results as given in patent publication US20120295893A1, “COMPOSITIONS AND METHODS OF COUNTERACTING RESIDUAL SEDATIVE EFFECTS OF SLEEP/ HYPNOTIC DRUGS” (COERULEUS LTD., priority 2009, published 2012).
In brackets after ≈: the same amount, converted by molar mass. Entries after “also recorded” stand apart in the source; their conditions may differ. Like-named read-outs stand apart in the source and are kept apart here.

Tests used:
[1] = system: sleep/hypnotic effect of zolpidem or brotizolam; assay: Clinical study: Visual Analogue Scale (sleepiness/vigilance, ability to focus, effectiveness)
[2] = Gel electrophoresis migration in agarose gel; assay type: physicochemical; conditions: pH 4.5 compared with pH 5.5 and 7.2; 0.66 mg/ml, 1% gel, positive electrode
Description: The following parameters were applied in order to evaluate migration in agarose gel (1%; 3 mm thick):
Total Width: 15.5 cm; Length: 15 cm; No of Lanes: 4; No of sections: 10; Buffer solution used: TAE (Tris […], Acetic acid, EDTA); Well vol: 10 ul/well; Voltage used: 50V-100V DC; and Run Time: 1 hr.
1. 0.66 mg/ml flumazenil pH 4.5—Positive Electrode 2. 0.66 mg/ml flumazenil pH 5.5—Positive Electrode 3. 0.66 mg/ml flumazenil in tween80 pH 7.2—Positive Electrode

[3] = system: sleep/hypnotic effect of zolpidem or brotizolam; assay: Clinical study: Profile Of Mood States (POMS) Brief form
[4] = Passive transdermal paper feasibility (3M empirical model)
Description: The feasibility of transdermal delivery was evaluated for flumazenil and zolpidem. The target transdermal dose for flumazenil used in this assessment was 0.6 mg/hr.
This study addresses the feasibility of passively delivering a drug from a transdermal patch based on requirements specified for flumazenil and thereby provides evaluation of drug diffusion across the skin at a feasible rate. […] The assessment involves first qualitatively assessing the physicochemical properties and target transdermal dose of the drug by comparing them to the properties of an ideal passive transdermal drug.
This maximum limit is defined empirically by a 3M model, which can be used to estimate the largest flux and minimum patch size of the proposed drug product.
The target transdermal flux is calculated by dividing the target transdermal dose by the patch area. Using Fick's Law of Diffusion, the steady-state transdermal flux (μg/cm^2/hr) of a drug across the stratum corneum, j, is described by Equation 1: […]
where D is the diffusion coefficient of the drug in the stratum corneum (cm^2/hr), 1 is the thickness of the stratum corneum, P is the permeability coefficient (cm/hr), and Δc is the drug's concentration gradient across the stratum corneum (μg/mL), which is commonly approximated in the literature, under infinite sink conditions, by the drug's solubility in octanol (coct).
The target drug flux is estimated by dividing the target daily transdermal dose (mg/day) by the target patch size (cm^2). If the target patch size is not defined, then a value of 40 cm^2 is used. Then, using equation (1), the target permeability coefficient can be estimated by dividing the target drug flux by the drug's solubility in octanol.

[5] = cited from earlier work
[6] = Clinical study: vital signs and safety assessments
[7] = cited from earlier work; remark: listed apart in the source
[8] = system: sleep/hypnotic effect of zolpidem or brotizolam; assay: Clinical study: immediate Word Recall Test (iWRT)
[9] = system: sleep/hypnotic effect of zolpidem or brotizolam; assay: Clinical study: digit symbol substitution test (DSST)
[10] = system: sleep/hypnotic effect of zolpidem or brotizolam; assay: Clinical study: overall response in performance tasks, flumazenil versus placebo
[11] = high dose FLUMUP 1.6 mg, 10 participants
[12] = N = 20, sublingual 0.4 mg or 1.6 mg, change from post-hypnotic baseline

CCOC(=O)c1ncn2c1CN(C)C(=O)c1cc(F)ccc1-2 [Flumazenil, ethyl 8-fluoro-5,6-dihydro-5-methyl-6-oxo-4H-imidazo[1,5-a] [1,4]benzodiazepine-3-carboxylate]
Effectiveness, Δ parameter 20 min aft spray ([1]; N = 20, 0.4 or 1.6 mg): 2.9 ± 0.6
Effectiveness, Δ parameter 60 min aft spray ([1]; N = 20, 0.4 or 1.6 mg): 4.5 ± 0.6
Focus Ability, Δ parameter 20 min aft spray ([1]; N = 20, 0.4 or 1.6 mg): 2.7 ± 0.5
Focus Ability, Δ parameter 60 min aft spray ([1]; N = 20, 0.4 or 1.6 mg): 4.3 ± 0.6
Vigilance, Δ parameter 20 min aft spray ([1]; N = 20, 0.4 or 1.6 mg): 3.0 ± 0.6
Vigilance, Δ parameter 60 min aft spray ([1]; N = 20, 0.4 or 1.6 mg): 4.7 ± 0.6
Effectivenes, % difference Flum vs. P [1, 11]: 61%
Effectivenes, Δ parameter 20 min aft spray [1, 11]: 3.8 ± 0.7
Effectivenes, Δ parameter 60 min aft spray [1, 11]: 5.5 ± 0.7
Focus Ability, % difference Flum vs. P [1, 11]: 59%
Focus Ability, Δ parameter 20 min aft spray [1, 11]: 3.7 ± 0.7
Focus Ability, Δ parameter 60 min aft spray [1, 11]: 5.8 ± 0.8
Vigilance, % difference Flum vs. P [1, 11]: 69%
Vigilance, Δ parameter 20 min aft spray [1, 11]: 3.6 ± 0.8
Vigilance, Δ parameter 60 min aft spray [1, 11]: 5.8 ± 0.8
migration in agarose gel [2]: most efficient
POMS- fatigue, Δ parameter 20 min aft spray ([3]; N = 20, 0.4 or 1.6 mg): −3.7 ± 0.9
POMS- fatigue, Δ parameter 60 min aft spray ([3]; N = 20, 0.4 or 1.6 mg): −5.5 ± 1.0
POMS-Alertness, Δ parameter 20 min aft spray ([3]; N = 20, 0.4 or 1.6 mg): 3.5 ± 0.9
POMS-Alertness, Δ parameter 60 min aft spray ([3]; N = 20, 0.4 or 1.6 mg): 5.3 ± 1.2
POMS- (first POMS line, r13), % difference Flum vs. P [3, 11]: 72%
POMS- (first POMS line, r13), Δ parameter 20 min aft spray [3, 11]: −5.8 ± 1.6
POMS- (first POMS line, r13), Δ parameter 60 min aft spray [3, 11]: −8.2 ± 1.6
POMS- (second POMS line, r14), % difference Flum vs. P [3, 11]: 93%
POMS- (second POMS line, r14), Δ parameter 20 min aft spray [3, 11]: 4.3 ± 1.5
POMS- (second POMS line, r14), Δ parameter 60 min aft spray [3, 11]: 7.2 ± 2.0
log P vs. Ideal transdermal drug (1 to 3) [4]: +
Ionization vs. Ideal transdermal drug (Neutral) ([4]; Table 20A): +
Ionization vs. Ideal transdermal drug (Neutral) ([4]; Table 21): +
effective plasma level ([5]; for IV 0.2 mg): 5 to 20 ng/mL
time to peak plasma level ([5]; from the oral administration): 20 to 90 min
plasma half life time ([5]; in vivo): 7 to 15 min
protein binding ([5]; in vivo): 40%
volume distribution ([5]; in vivo): 0.63 to 1.6 L/kg
onset of action ([5]; intravenous): few seconds to two minutes
time of peak effect post administration ([5]; intravenous): six to ten minutes
bioavailability ([5]; oral delivery, high hepatic elimination): 16%
plasma level ([5]; oral dose of 200-600 mg): 0.143 to 0.439 µg/mL
Diastolic BP, Δ parameter 20 min aft spray ([6]; N = 20, 0.4 or 1.6 mg): −0.5 ± 1.5
Diastolic BP, Δ parameter 60 min aft spray ([6]; N = 20, 0.4 or 1.6 mg): −2.3 ± 1.2
Systolic BP, Δ parameter 20 min aft spray ([6]; N = 20, 0.4 or 1.6 mg): −5.5 ± 2.3
Systolic BP, Δ parameter 60 min aft spray ([6]; N = 20, 0.4 or 1.6 mg): −6.1 ± 2.7
Pulse, Δ parameter 20 min aft spray [6, 12]: −2.9 ± 1.3
Pulse, Δ parameter 60 min aft spray [6, 12]: −3.4 ± 1.6
complaints of unusual sensation, pain, nausea, abdominal pain or other side effect ([6]; both doses of flumazenil, n=20): None of the participants complained
Diastolic BP, % difference Flum vs. P [6, 11]: 70%
Diastolic BP, Δ parameter 20 min aft spray [6, 11]: −2.0 ± 1.9
Diastolic BP, Δ parameter 60 min aft spray [6, 11]: −2.6 ± 1.8
Pulse, % difference Flum vs. P [6, 11]: 8%
Pulse, Δ parameter 60 min aft spray [6, 11]: −1.2 ± 2.7
Systolic BP, % difference Flum vs. P [6, 11]: 59%
Systolic BP, Δ parameter 20 min aft spray [6, 11]: −4.7 ± 3.5
Systolic BP, Δ parameter 60 min aft spray [6, 11]: −1.7 ± 4.2
Pulse, Δ parameter 20 min aft spray ([6]; high dose FLUMUP 1.6 mg, 10 participants, doubled hypnotic dose): −0.4 ± 1.9
vital signs (pulse, respiration), temperature and blood pressure ([6]; sublingual 0.4 mg and 1.6 mg, n=20): within normal values
physical, neurological, mouth and buccal, cardiac and lung examination, ECG ([6]; sublingual 0.4 mg and 1.6 mg, with respect to placebo, n=20): not adversely affected
pKa ([7]; SciFinderScholar): 1.14±0.2
Ionization ([7]; Table 20A): Neutral
log P ([7]; Table 20A): 1
Ionization ([7]; Table 21): Neutral
solubility (in words) [7]: sparingly soluble
solubility in Propylene glycol, PEG 300 and PEG 400 [7]: ~23 mM (≈ 6980 µg/mL)
solubility in pure ethanol ([7]; maximum): ~33 mM (≈ 10000 µg/mL)
pKa ([7]; product information): 1.78
iWRT, Δ parameter 20 min aft spray ([8]; N = 20, 0.4 or 1.6 mg): 4.2 ± 0.8
iWRT, Δ parameter 60 min aft spray ([8]; N = 20, 0.4 or 1.6 mg): 5.4 ± 1.1
iWRT, % difference Flum vs. P [8, 11]: 92%
iWRT, Δ parameter 20 min aft spray [8, 11]: 5.5 ± 0.9
iWRT, Δ parameter 60 min aft spray [8, 11]: 6.1 ± 1.2
DSST, Δ parameter 20 min aft spray ([9]; N = 20, 0.4 or 1.6 mg): 17.7 ± 2.3
DSST, Δ parameter 60 min aft spray ([9]; N = 20, 0.4 or 1.6 mg): 22.4 ± 3.0
DSST, % difference Flum vs. P [9, 11]: 92%
DSST, Δ parameter 20 min aft spray [9, 11]: 23.2 ± 3.4
DSST, Δ parameter 60 min aft spray [9, 11]: 30.4 ± 3.6
difference between flumazenil and placebo, low dose ([10]; first 10 subjects, flumazenil 0.4 mg, brotizolam 0.25 mg or zolpidem 10 mg): no significant differences; also recorded: could not be better reversed
response: differences between flumazenil and placebo ([10]; last 10 participants, flumazenil 1.6 mg, doubled hypnotic dose): over 30%
duration of effect following administration ([10]; sublingual spray): at least 60 min
start of effect following administration ([10]; sublingual spray): ≤ 20 min
